The values that follow come from patent US20170037028A1 (BAYER PHARMA AKTIENGESELLSCHAFT, priority 2013, published 2017).

The target in one experiment is T1, GLUT1 (Homo sapiens, UniProt P11166).
T1 sequence (P11166 1-492): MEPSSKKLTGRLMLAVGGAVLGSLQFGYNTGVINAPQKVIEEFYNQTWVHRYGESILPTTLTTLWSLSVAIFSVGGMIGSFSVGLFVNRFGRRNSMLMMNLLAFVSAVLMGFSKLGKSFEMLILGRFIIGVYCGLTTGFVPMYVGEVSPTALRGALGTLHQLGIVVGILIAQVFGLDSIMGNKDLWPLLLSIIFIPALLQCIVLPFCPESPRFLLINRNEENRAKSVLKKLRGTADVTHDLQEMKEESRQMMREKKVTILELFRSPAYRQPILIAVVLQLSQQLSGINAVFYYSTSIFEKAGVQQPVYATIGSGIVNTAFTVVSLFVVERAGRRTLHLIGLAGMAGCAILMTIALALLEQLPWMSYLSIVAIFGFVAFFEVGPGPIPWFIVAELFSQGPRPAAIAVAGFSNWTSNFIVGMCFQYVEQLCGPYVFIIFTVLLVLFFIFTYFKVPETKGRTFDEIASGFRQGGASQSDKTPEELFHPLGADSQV
In words: Indirect measurement of GLUT1 activity by quantification of intracellular ATP levels (glucose induced ATP increase). Type of experiment: cell-based. Details: endogenous in cells; host or cells: DLD1 or CHO-K1. The conditions noted are these: DLD1 cells; 0.1 mM glucose, 1 μM Rotenone, 15 min; CellTiter-Glo ATP readout; IC50 values standardized to cytochalasin B IC50 values; read-out: IC50 regarding glucose induced ATP increase (GLUT1 inhibition). An excerpt: Indirect Measurement of GLUT1 and GLUT2 Activity by Quantification of Intracellular ATP Levels
It is well known that a combination of small-molecule inhibitors of mitochondrial electron transport chain and glucose catabolism synergistically suppress ATP production and impair cellular viability (Ulanovskaya et al., 2008, 2011; Liu, et al. 2001). We therefore used DLD1 or CHO-K1 cells in combination with an oxidative phosphorylation inhibitor to identify GLUT1 and GLUT2 inhibitors. Cell lines were maintained in DMEM medium supplemented with 10% FCS and 1% Penicillin-Streptomycin solution and 2% Glutamax. The cells were treated with trypsin and seeded into 384 plates at a density of 4000 cells/well. The cells were then cultured overnight in glucose free media containing 1% FCS to reduce intracellular ATP levels. […] The CellTiter-Glo® Luminescent Cell Viability Assay from Promega was then used to measure ATP Levels.
Take “6-cyano N^4-[1-(4-cyanobenzyl)-5-methyl-3-(trifluoromethyl)-1H-pyrazol-4-yl]quinoline-2,4-dicarboxamide [Example 337]”: the IC50 is 1.9 nM.

The same experiment, now with this note: read-out: IC50 regarding glucose induced ATP increase (GLUT1 inhibition).
With `Cc1nn(C(C)c2ccc(C#N)cc2)c(C)c1NC(=O)c1cc(C(N)=O)nc2ccccc12` (racemic) [Example 329, (±)-N^4-{1-[1-(4-cyanophenyl)ethyl]-3,5-dimethyl-1H-pyrazol-4-yl}quinoline-2,4-dicarboxamide], the 50% inhibitory concentration (IC50) was 1.1 nM. With `Cc1nn(C(C)c2ccc(C#N)cc2)c(C)c1NC(=O)c1cc(C(N)=O)nc2cc(F)c(Cl)cc12` (racemic) [Example 330, (±)-6-chloro-N^4-{1-[1-(4-cyanophenyl)ethyl]-3,5-dimethyl-1H-pyrazol-4-yl}-7-fluoroquinoline-2,4-dicarboxamide], the IC50 turned out to be 1.3 nM. Consider `Cc1nn(C(C)c2ccc(C#N)cc2)c(C)c1NC(=O)c1cc(C(N)=O)nc2c(F)cccc12` (racemic) [Example 331, (±)-N^4-{1-[1-(4-cyanophenyl)ethyl]-3,5-dimethyl-1H-pyrazol-4-yl}-8-fluoroquinoline-2,4-dicarboxamide], for which the 50% inhibitory concentration (IC50) amounted to 2.5 nM.

Regarding `Cc1c(NC(=O)c2cc(C(N)=O)nc3ccccc23)c(C(F)(F)F)nn1C(C)c1ccc(C#N)cc1` (racemic) [Example 333, (±)-N^4-{1-[1-(4-cyanophenyl)ethyl]-5-methyl-3-(trifluoromethyl)-1H-pyrazol-4-yl}quinoline-2,4-dicarboxamide], the IC50 was 0.6 nM. As for `Cc1c(NC(=O)c2cc(C(N)=O)nc3cc(F)ccc23)c(C(F)(F)F)nn1C(C)c1ccccc1` (racemic) [Example 334, (±)-7-fluoro-N^4-[5-methyl-1-(1-phenylethyl)-3-(trifluoromethyl)-1H-pyrazol-4-yl]quinoline-2,4-dicarboxamide], the IC50 was found to be 7.5 nM. Consider `CCOC(=O)N=S(C)(=O)c1ccc(Cn2nc(C)c(NC(=O)c3cc(C(N)=O)nc4ccccc34)c2C)cc1` (racemic) [Example 376, (±)-ethyl [{4-[(4-{[(2-carbamoylquinolin-4-yl)carbonyl]amino}-3,5-dimethyl-1H-pyrazol-1-yl)methyl]phenyl}(methyl)oxido-λ^6-sulfanylidene]carbamate], for which the IC50 was found to be 642 nM.

Turning to `Cc1nn(Cc2ccc(S(C)(=N)=O)cc2)c(C)c1NC(=O)c1cc(C(N)=O)nc2ccccc12` (racemic) [Example 377], the IC50 is 1100 nM.

For the compound `Cc1c(NC(=O)c2cc([S+](C)[O-])nc3ccccc23)c(C(F)(F)F)nn1Cc1ccc(C#N)cc1` (racemic) [Example 383, (±)-N-[1-(4-cyanobenzyl)-5-methyl-3-(trifluoromethyl)-1H-pyrazol-4-yl]-2-(methylsulfinyl)quinoline-4-carboxamide], the half-inhibitory concentration (IC50) was 8.3 nM. With `Cc1c(NC(=O)c2cc(S(C)=NC#N)nc3ccccc23)c(C(F)(F)F)nn1Cc1ccc(C#N)cc1` (racemic) [Example 385, (±)-N-[1-(4-cyanobenzyl)-5-methyl-3-(trifluoromethyl)-1H-pyrazol-4-yl]-2-(N-cyano-S-methylsulfinimidoyl)quinoline-4-carboxamide], the 50% inhibitory concentration (IC50) is 81.7 nM. On to `Cc1c(NC(=O)c2cc(S(C)(=O)=NC#N)nc3ccccc23)c(C(F)(F)F)nn1Cc1ccc(C#N)cc1` (racemic) [Example 386, (±)-N-[1-(4-cyanobenzyl)-5-methyl-3-(trifluoromethyl)-1H-pyrazol-4-yl]-2-(N-cyano-S-methylsulfonimidoyl)quinoline-4-carboxamide], for which the half-inhibitory concentration (IC50) stood at 43.2 nM. With `Cc1c(NC(=O)c2cc(S(C)(=N)=O)nc3ccccc23)c(C(F)(F)F)nn1Cc1ccc(C#N)cc1` (racemic) [Example 387, (±)-N-[1-(4-cyanobenzyl)-5-methyl-3-(trifluoromethyl)-1H-pyrazol-4-yl]-2-(S-methylsulfonimidoyl)quinoline-4-carboxamide], the IC50 turned out to be 146 nM. Consider `Cc1nn(Cc2ccc(C(=O)NCC3CCO3)cn2)c(C)c1NC(=O)c1cc(C(F)(F)F)nc2ccc(Br)cc12` (racemic) [Example 1124], for which the IC50 is 72.6 nM. Regarding `Cc1nn(Cc2ccc(C(=O)N3CCC(O)C3)cc2)c(C)c1NC(=O)c1cc(C(F)(F)F)nc2ccc(Br)cc12` (racemic) [Example 1161], the IC50 turned out to be 162 nM. Take `Cc1nn(Cc2ccc(C(=O)N3CCCC(O)C3)cc2)c(C)c1NC(=O)c1cc(C(F)(F)F)nc2ccc(Br)cc12` (racemic) [Example 1162]: the half-maximal inhibitory concentration (IC50) worked out at 164 nM. On to `Cc1nn(Cc2ccc(C(=O)NC3CCNC3=O)cc2)c(C)c1NC(=O)c1cc(C(F)(F)F)nc2ccc(Br)cc12` (racemic) [Example 1166], for which the half-inhibitory concentration (IC50) was 170 nM. Take `Cc1nn(C(C)c2ccccc2)c(C)c1NC(=O)c1cc(C(F)(F)F)nc2ccc(Br)cc12` (racemic) [Example 1360]: the half-maximal inhibitory concentration (IC50) turned out to be 21.6 nM. Regarding `COc1cc(C(=O)Nc2c(C)nn(C(C)c3ccccc3)c2C)c2ccccc2n1` (racemic) [Example 1361], the IC50 was 36.9 nM. Turning to `Cc1nn(C(C)c2ccccc2)c(C)c1NC(=O)c1cc(C(N)=O)nc2ccccc12` (racemic) [Example 1362], the IC50 was found to be 5.8 nM. As for `Cc1nn(C(C)c2ccccc2)c(C)c1NC(=O)c1cc(C(N)=O)nc2cc(F)c(Cl)cc12` (racemic) [Example 1363], the IC50 turned out to be 1.8 nM.

On to `Cc1nn(C(C)c2ccc(F)cc2)c(C)c1NC(=O)c1cc(C(N)=O)nc2ccccc12` (racemic) [Example 1364], for which the IC50 is 125 nM. On to `Cc1nn(C(C)c2ccc(F)cc2)c(C)c1NC(=O)c1cc(C(F)(F)F)nc2ccc(Br)cc12` (racemic) [Example 1374], for which the IC50 turned out to be 42.6 nM. Still for that read-out and setting: the figure for `Cc1nn(C(C)CCc2ccc(F)cc2)c(C)c1NC(=O)c1cc(C(F)(F)F)nc2ccc(Br)cc12` (racemic) [Example 1378] is 643 nM. With `Cc1nn(C(C)CCc2ccc(F)cc2)c(C)c1NC(=O)c1cc(C(N)=O)nc2ccccc12` (racemic) [Example 1379], the IC50 was determined as 39.4 nM. Turning to `Cc1nn(C(C)CCc2ccc(F)cc2)c(C)c1NC(=O)c1cc(C(N)=O)nc2cc(F)c(Cl)cc12` (racemic) [Example 1380], the IC50 was 3.7 nM. With `Cc1c(NC(=O)c2cc(C(N)=O)nc3ccccc23)c(C(F)(F)F)nn1C(C)c1ccccc1` (racemic) [Example 1397], the IC50 stood at 4.3 nM. As for `Cc1c(NC(=O)c2cc(C(F)(F)F)nc3ccc(Br)cc23)c(C(F)(F)F)nn1C(C)c1ccccc1` (racemic) [Example 1398], the half-inhibitory concentration (IC50) was 38.9 nM. Consider `Cc1nn(Cc2ccc(S(C)(=N)=O)cc2)c(C)c1NC(=O)c1cc(C(F)(F)F)nc2ccc(Br)cc12` (racemic) [Example 1427], for which the half-maximal inhibitory concentration (IC50) amounted to 26.9 nM. On to `CCOC(=O)N=S(C)(=O)c1ccc(Cn2nc(C)c(NC(=O)c3cc(C(F)(F)F)nc4ccc(Br)cc34)c2C)cc1` (racemic) [Example 1433], for which the IC50 is 717 nM. Turning to `Cc1c(NC(=O)c2cc(C(N)=O)nc3ccccc23)c(C(F)(F)F)nn1Cc1ccc(C(C)O)cc1` (racemic) [Example 1615], the half-maximal inhibitory concentration (IC50) turned out to be 59.4 nM. As to `Cc1nn(Cc2ccc(C(C)O)cc2)c(C)c1NC(=O)c1cc(C(N)=O)nc2ccccc12` (racemic) [Example 1635], the IC50 worked out at 45.4 nM. In the case of `Cc1c(NC(=O)c2cc(C(N)=O)nc3ccccc23)c(C(F)(F)F)nn1Cc1cccc(C(C)O)c1` (racemic) [Example 1644], the 50% inhibitory concentration (IC50) came to 184 nM. On to `Cc1nn(Cc2cccc(C(C)O)c2)c(C)c1NC(=O)c1cc(C(N)=O)nc2ccccc12` (racemic) [Example 1645], for which the IC50 amounted to 319 nM. Same read-out and setting: in the case of `Cc1nn(Cc2ccc(C(=O)N[C@H](C)[C@@H](C)O)cc2)c(C)c1NC(=O)c1cc(C(F)(F)F)nc2ccc(Br)cc12` (relative stereo) [Example 1057] it was 15.1 nM. Same read-out and setting: in the case of `Cc1c(NC(=O)c2cc(C(N)=O)nc3cc(F)ccc23)c(C(F)(F)F)nn1C(C)c1ccccc1` (single isomer, unassigned) [Example 335, (R or S)-7-fluoro-N^4-[5-methyl-1-(1-phenylethyl)-3-(trifluoromethyl)-1H-pyrazol-4-yl]quinoline-2,4-dicarboxamide] it was 1.6 nM; in that of `Cc1c(NC(=O)c2cc(C(N)=O)nc3cc(F)ccc23)c(C(F)(F)F)nn1C(C)c1ccccc1` (single isomer, unassigned) [Example 336, (S or R)-7-fluoro-N^4-[5-methyl-1-(1-phenylethyl)-3-(trifluoromethyl)-1H-pyrazol-4-yl]quinoline-2,4-dicarboxamide], 150 nM.
